Test results: PMC5395182, “Soaking suggests “alternative facts”: Only co-crystallization discloses major ligand-induced interface rearrangements of a homodimeric tRNA-binding protein indicating a novel mode-of-inhibition” (PLoS ONE, 2017)
“Also recorded” adds a separate entry of the source. Like-named read-outs stand apart in the source and are kept apart here.

Columns and labels:
Z. mobilis TGT [1] = molecular target: T1, Z. mobilis TGT (Zymomonas mobilis subsp. mobilis, UniProt P28720); set-up: method as in PMID 24955548; settings: cited from earlier work
T1 construct: Strep-tag II (N, cleaved yes); made in house; host or cells: Escherichia coli
T1 sequence (P28720 whole entry): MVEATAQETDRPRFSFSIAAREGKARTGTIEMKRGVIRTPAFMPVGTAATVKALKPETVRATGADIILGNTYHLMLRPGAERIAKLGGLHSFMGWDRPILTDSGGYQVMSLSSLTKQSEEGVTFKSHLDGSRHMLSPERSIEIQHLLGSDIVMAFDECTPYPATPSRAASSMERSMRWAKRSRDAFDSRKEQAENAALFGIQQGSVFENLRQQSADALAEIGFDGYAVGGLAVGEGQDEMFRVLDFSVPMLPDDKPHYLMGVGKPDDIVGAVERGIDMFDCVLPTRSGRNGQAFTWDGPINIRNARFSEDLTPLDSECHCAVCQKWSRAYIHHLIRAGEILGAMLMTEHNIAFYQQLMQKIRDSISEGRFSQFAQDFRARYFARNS

Z. mobilis TGT [2] = molecular target: T1, Z. mobilis TGT; settings: cited from earlier work
Z. mobilis TGT [3] = molecular target: T1, Z. mobilis TGT; experiment: TGT-catalyzed incorporation of radio-labeled guanine into tRNA (inhibition constants); type: biochemical
Description: The inhibition constants (Ki) of ligands 1 to 9, which are listed in Fig 2, were determined previously (except that of 4, which was determined in this study)[19, 20, 23, 26] via a well-established assay monitoring the TGT-catalyzed incorporation of radio-labeled guanine into tRNA. […] This substituent addresses the ribose-33/uracil-33 pocket by forming an H-bond to the main chain carbonyl of Ala232 (Fig 1 and S3 and S4 Figs).
The concentration of Z. mobilis TGT amounted to 9 nM, [8-^3H]-guanine was used at a (saturating) concentration of 10 μM and tRNA^Tyr at a concentration of 1.5 μM. Aliquots of 15 μL were withdrawn for scintillation counting every 60 minutes (in total four).
The Ki value was averaged over three measurements. The preparation of E.coli tRNA^Tyr (ECYC2) via in vitro transcription was carried out using the RiboMAX™ Large Scale RNA Production System-T7 (Promega) according to the vendor´s protocol.

TGT homodimer = tested on: T2, TGT homodimer; experiment: Native ESI-MS of TGT:ligand 1:10 mixtures (dimer destabilization); set-up: species or system Zymomonas mobilis; settings: for Relative proportion of TGT monomers: 2.5 µM TGT and 25 µM inhibitor (1:10), 1 M NH4Ac pH 7.5, without ligand 3.3 ± 0.7 %; for effect on TGT dimer stability / monomer proportion, in words: compared to measurements in the absence of any ligand, TGT:ligand 1:10
T2 construct: Strep-tag II (N, cleaved yes); made in house; host or cells: Escherichia coli
Description: In order to gain insights into the dimer disturbing potential seen in the crystal structures with the different ligands and to collect evidence for such a behavior also present in solution, native ESI-MS was performed. This technique enables to monitor the oligomerization state of TGT at equilibrium under non-denaturing conditions, in the absence or presence of saturating ligand concentrations. […] To ensure reliability, these comparative experiments were thus carried out adhering to strictly similar conditions (see Materials and methods).
Relative proportions of TGT-monomer signals extracted from individual 1:10 TGT:ligand mixtures (TGT monomer 2.5 μM) were quantified (S7 Fig, S1 Table) and normalized with respect to this value in the absence of any inhibitor.
Nano-ESI-MS analyses were performed as already described in the literature. Briefly, WT-TGT samples were exchanged twice against a 1 M ammonium acetate pH 7.5 buffer using microcentrifuge gel-filtration columns (Zeba 0.5 mL, Thermo Scientific). Next, protein concentration was determined spectrophotometrically at 280 nm (Nano-Drop 2000 spectrophotometer, Thermo Scientific).
Native MS experiments were carried out on a hybrid Q-TOF mass spectrometer (Synapt G2 HDMS, Waters) equipped with an automated chip-based nanoESI source (Triversa Nanomate, Advion Biosciences) operating in the positive ion mode. External calibrations were generated from the multiple charged ions produced by a 2 μM horse heart myoglobin solution diluted in a 1:1 (v/v) water: acetonitrile mixture acidified with 1% (v/v) formic acid (denaturing MS) and singly charged cesium iodide clusters diluted to 2 g∙L^-1 in a 1:1 (v/v) water: isopropanol solution (native MS).
Titration experiments in native conditions (1 M NH4Ac pH 7.5) were next triggered by mixing 2.5 μM TGT monomers with 25 μM of each ligand separately (ratio 1:10). The final DMSO concentration of each mixture never exceeded 0.25% (v/v). Non-covalent TGT dimers and TGT-ligand complexes were preserved in the gas phase according fine-tuned instrumental parameters, improving ion desolvation and transmission while maintaining intact structures (Vc = 80V, Pi = 6 mbar).
Relative quantification of TGT monomers was performed from charge states peak intensities of both monomeric (10 to 14+) and dimeric complexes (15 to 20+), using MassLynx 4.1 (Waters). TGT dimer disruption was determined for each ligand through their destabilization factor (Fig 8) which corresponds to their associated ratio of TGT monomers normalized from the apo-condition (S7 Fig; S1 Table). Standard deviations are calculated here from analytical triplicates. For the sake of reliability and comparability, all these experiments were performed within the same day, from identical experimental and instrumental conditions using the same buffer exchanged TGT batch (frozen and thawed only once).

[4] = Ligand dilution in native MS buffer (precipitation); type: physicochemical; settings: 1 M NH4Ac pH 7.5
[5] = ionization corrected, data for 1 determined previously

factor by which 1 is more potent than 3 (Z. mobilis TGT [3]; radio-labeled assay, Ki ratio 1 vs 3) | Ki (Z. mobilis TGT [3]; determined in this study, competitive with respect to tRNA substrate, averaged over three measurements) [nM] | SMILES | -TΔS^0 (Z. mobilis TGT [1]; HEPES buffer) | ΔH^0obs (Z. mobilis TGT [1]; HEPES buffer) | Kd (Z. mobilis TGT [1]; ITC, 298 K) [nM] | ΔG^0 (Z. mobilis TGT [1]; ITC) | -TΔS^0 (Z. mobilis TGT [1]; TRIS buffer) | ΔH^0obs (Z. mobilis TGT [1]; TRIS buffer) | -TΔS^0 (Z. mobilis TGT [1]; Tricin buffer) | ΔH^0obs (Z. mobilis TGT [1]; Tricin buffer) | -TΔS^0 (Z. mobilis TGT [1]; [5]) [kJ/mol] | ΔH^0bind (Z. mobilis TGT [1]; [5]) [kcal/mol] | protons picked up during binding (Z. mobilis TGT [1]; slope of linear regression) | increase of affinity compared to the unsubstituted lin-benzoguanine (factor) (Z. mobilis TGT [2]; Ki ratio) | Ki (Z. mobilis TGT [2]) [nM] | Relative proportion of TGT monomers (TGT homodimer) [%] | effect on TGT dimer stability / monomer proportion, in words (TGT homodimer) | precipitation upon ligand dilution in buffer [4]
6 | – | CNc1nc2cc3nc(N)[nH]c(=O)c3cc2[nH]1 [Inhibitor 1] | 34.2 ± 1.9^29 kJ∙mol^-1 | -74.8 ± 1.8^29 kJ∙mol^-1 | 52 ± 7 | -41.6 ± 0.3^29 kJ∙mol^-1 | 9.3 ± 0.9^29 kJ∙mol^-1 | -50.9 ± 0.9^29 kJ∙mol^-1 | 25.1 ± 0.3^29 kJ∙mol^-1 | -66.7 ± 0.1^29 kJ∙mol^-1 | 52.0 | -22.4 | 0.89 protons per mole of the formed complex | 70 | 58 ± 36 | 3.4 | No effect on dimer stability | –
– | 193 ± 41 | CNc1nc2c(CCNCC3CCC(C#Cc4cccnc4)CC3)c3nc(N)[nH]c(=O)c3cc2[nH]1 (centres unmarked) [Inhibitor 4] | – | – | – | – | – | – | – | – | – | – | – | – | – | 5.6 | small effect might be given | partial precipitation; also recorded: To a lower extent, a similar phenomenon was also observed
